The source of these data is US20240294509A1, “PYRIDAZINONE COMPOUND AS PARP7 INHIBITOR” (Euregen Biopharma Co., Ltd., priority 2021, published 2024).

Data set [1] in a line: Metabolic stability in human liver microsomes. The following applies: pH 7.4, 1.00 μM compound, 0.5 mg/mL protein, read-out: intrinsic clearance, Clint. The format is in vitro ADME. The method, then:
(§1) 1. Experiment purpose: This study aims to determine the metabolic stability of selected compounds from the embodiments of the invention in liver microsomes of humans, dogs, monkeys, rats, and mice using the LC-MS/MS method.
(§2) Test compounds: The test drug is self-made from the example compounds of the present invention; Positive control compound RBN2397 purchased from Shanghai BioChemPartner Biotechnology Co., Ltd.
(§3) Liver microsomes obtained from Xenotech.
(§4) The incubation was carried out at 37° C. in a CO2 incubator. The reactions were terminated by adding 150 μL of cold acetonitrile at different time points (0, 5, 15, 30, and 45 minutes). The 96-well plate was shaken at 600 rpm for 10 minutes, followed by centrifugation at 6000 rpm for 15 minutes. The supernatant (80 μL) was mixed with 140 μL of pure water, and the remaining amount of the compound was determined using LC-MS/MS. The intrinsic clearance (Clint) was calculated using the formula Clint=k/liver microsomes protein concentration, where “k” is the linear regression slope of log compound remaining percentage against incubation time.
Background: Microsomes from liver hold many membrane-bound enzymes, among them those of drug oxidation.

The nature of data set [2]: Metabolic stability in rat liver microsomes. The data set is classed as in vitro ADME. The following applies: pH 7.4, 1.00 μM compound, 0.5 mg/mL protein, read-out: intrinsic clearance, Clint. Here is the method:
as §1, §2, §3, §4

For data set [3], the system named is NCI-H1373 cells. The experiment in a line: Inhibitory effect on the proliferation of NCI-H1373 cells (CellTiter-Glo). The data set is classed as cell-based. As to conditions: Homo sapiens, 144 h, 6 days treatment. The text has this:
1. Experimental Principle: NCI-H1373 cells are a type of lung adenocarcinoma cells that overexpress PARP7.
2. Experimental Materials: NCI-H1373 cells were obtained from Nanjing Cobioer Biosciences Co., Ltd. CellTiter-Glo® (cell viability chemiluminescent assay reagent) was purchased from Promega (Catalog No. G7571). RPMI-1640 medium was obtained from ATCC (Catalog No. 30-2001). RPMI-1640 medium, penicillin/streptomycin antibiotics were purchased from WISENT. Fetal bovine serum was obtained from Biosera. The Nivo multimode reader was procured from PerkinElmer.
3. Experimental Method: NCI-H1373 cells were seeded in a white 96-well plate with 80 μL of cell suspension per well, containing 3000 NCI-H1373 cells. The cell plate was incubated overnight in a carbon dioxide (CO2) incubator.
The test compounds were serially diluted 5-fold to the 9th concentration, ranging from 2 mmol/L to 5.12 nmol/L, for a duplicate assay. 78 μL of culture medium was added to the intermediate plate, and then, according to the corresponding positions, 2 μL of each gradient-diluted compound was transferred to the intermediate plate. After thorough mixing, 20 μL of the compound solution was transferred to the cell plate. The compound concentration range in the cell plate ranged from 10 μmol/L to 0.0256 nmol/L. The cell plate was incubated in a CO2 incubator for 6 days.
Another cell plate was prepared, and the signal values were read on the day of dosing to obtain the maximum value referred to as Max in the following equation for data analysis. 25 μL of cell viability chemiluminescent assay reagent was added to each well of this cell plate, and it was incubated at room temperature for 10 minutes to stabilize the luminescent signal. Readings were taken using a multimode reader.
After 6 days of treatment, 25 μL of cell viability chemiluminescent assay reagent was added to each well of the cell plate, and it was incubated at room temperature for 10 minutes to stabilize the luminescent signal. Readings were taken using a multimode reader.
The IC50 value was determined by four-parameter curve fitting (obtained by using the “log(inhibitor) vs. response—Variable slope” model in GraphPad Prism).
A general note: In ATP-based viability assays light output follows the ATP content of the culture.

Data set [4] in a line: Pharmacokinetic properties in SD rats after single intravenous injection and oral administration. The data set is classed as in vivo. As to conditions: SD male rats; for F: oral bioavailability; for AUC(0-inf) / Cmax / clearance / half-life: rat, plasma. An excerpt:
1. Test purpose: to determine the pharmacokinetic characteristics of some of the example compound of the present invention in SD rats after single intravenous injection(IV) and oral administration(PO) by LC-MS/MS method.
2. Test material: the test drug is self-made from the example compounds of the present invention; Positive control compound RBN2397 purchased from Shanghai BioChemPartner Biotechnology Co., Ltd. SD male rats were obtained from the Laboratory Animal Management Department of Shanghai Family Planning Research Institute. Animal production license number (SCXK (Shanghai) 2018-0006).
Preparation of 0.5% methyl cellulose: 5 g of methyl cellulose were weighed and dissolved in 1000 mL of purified water.
Preparation of oral formulation: A required amount of test compound was weighed and dissolved in 0.5% methyl cellulose solution to obtain a suspension or solution of 0.5 mg/mL or 1.0 mg/mL.
Preparation of intravenous injection formulation: A required amount of test compound was weighed, and dissolved in 0.5 mL of dimethyl sulfoxide to prepare a solution of 4 mg/mL. 0.25 mL of the above solution was added into 0.5 mL of polyethylene glycol 15 hydroxystearate (solutol) and 4.25 mL of physiological saline to obtain a solution of 0.2 mg/mL.
Administration: SD male rats were orally administered (PO) after fasting overnight, and fed 4 hours after administration.
Sample Collection: blood was collected through jugular vein or other suitable vein, and 0.2 mL of blood was collected at each time point. Samples were placed into tubes containing ethylenediamine tetraacetic acid dipotassium salt and kept on ice before centrifugation. Within 1 hour after blood collection, the blood samples were centrifuged at 2-8° C. and 6800 g for 6 minutes and stored at −80° C. The time point for blood collection was 0.083, 0.25, 0.5, 1, 2, 4, 8 and 24 hours after intravenous administration, and 0.25, 0.5, 1, 2, 4, 6, 8 and 24 hours after oral administration.
The intravenous dosage was 1 mg/kg, and the pharmacokinetic parameters for oral administration were standardized to a 1 mg/kg dose.

The nature of data set [5]: Metabolic stability in dog liver microsomes. The data set is classed as in vitro ADME. The following applies: pH 7.4, 1.00 μM compound, 0.5 mg/mL protein, read-out: intrinsic clearance, Clint. The method, then: as §1, §2, §3, §4
Data set [6] concerns the target PARP1 (Homo sapiens (Human), UniProt P09874). Put plainly: biochemical.
Protocol: (§5) Experimental Principle: The inhibitory effect of the test substance on the enzymatic activity of PARP1/7 is assessed by using an Enzyme-Linked Immunosorbent Assay (ELISA).
(§6) (1) Pre-coating: Add 100 μL of a PBS buffer (10 mM NaH2PO4, 10 mM Na2HPO4, 150 mM NaCl, pH 7.4) containing 20 g/mL of histone to each well of a 96-well plate, and incubate at 4° C. overnight.
(§7) (3) Add 5 μL of the test substance or solvent to each well.
(§8) (4) Add 20 μL of(PARP1 or PARP7 (50 ng/well), and incubate at 30° C. for 1 hour.
(§9) (5) Add 50 μL of streptavidin-HRP to the reaction mixture, and incubate at 30° C. for 30 minutes.
(§10) (6) Finally, add 100 μL of a citrate buffer containing H2O2 and luminol (0.1 M, pH 5.4), and measure the luminescent signal using a microplate reader (Molecular Devices SpectraMax M5).
(§11) (7) Calculate the inhibition rate of PARP1 or PARP7 enzyme activity as [(control group−treatment group)/control group]×10000. Fit the dose-response data with standard dilutions using Prism GraphPad software and calculate the concentration required to achieve 5000 inhibition of PARP1 or PARP7 enzyme activity (IC50).
For data set [7], the target named is PARP7 (Homo sapiens (Human), UniProt Q7Z3E1). The experiment in a line: biochemical.
Chain of PARP7 (Q7Z3E1 whole entry): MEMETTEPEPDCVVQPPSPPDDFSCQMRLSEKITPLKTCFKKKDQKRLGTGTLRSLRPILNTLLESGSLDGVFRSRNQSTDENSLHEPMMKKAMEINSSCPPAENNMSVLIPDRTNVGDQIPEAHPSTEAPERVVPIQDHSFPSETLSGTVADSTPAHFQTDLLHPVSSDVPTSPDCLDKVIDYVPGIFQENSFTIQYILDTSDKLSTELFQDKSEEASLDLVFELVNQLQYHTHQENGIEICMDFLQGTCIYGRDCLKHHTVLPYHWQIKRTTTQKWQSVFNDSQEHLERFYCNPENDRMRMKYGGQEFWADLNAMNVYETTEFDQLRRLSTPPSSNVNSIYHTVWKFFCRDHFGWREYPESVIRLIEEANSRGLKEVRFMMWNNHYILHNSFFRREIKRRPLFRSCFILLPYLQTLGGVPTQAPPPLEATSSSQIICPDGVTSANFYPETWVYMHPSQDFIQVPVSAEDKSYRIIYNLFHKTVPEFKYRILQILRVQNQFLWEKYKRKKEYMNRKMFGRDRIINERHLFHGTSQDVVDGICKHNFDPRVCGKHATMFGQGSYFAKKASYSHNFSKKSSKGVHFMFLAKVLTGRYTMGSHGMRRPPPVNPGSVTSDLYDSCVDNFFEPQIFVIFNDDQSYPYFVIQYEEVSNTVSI
Protocol: as §5, §6, §7, §8, §9, §10, §11
Where [8] appears, read: Oral gavage, standardized to a 1 mg/kg dose.

Chain of PARP1 (P09874 whole entry): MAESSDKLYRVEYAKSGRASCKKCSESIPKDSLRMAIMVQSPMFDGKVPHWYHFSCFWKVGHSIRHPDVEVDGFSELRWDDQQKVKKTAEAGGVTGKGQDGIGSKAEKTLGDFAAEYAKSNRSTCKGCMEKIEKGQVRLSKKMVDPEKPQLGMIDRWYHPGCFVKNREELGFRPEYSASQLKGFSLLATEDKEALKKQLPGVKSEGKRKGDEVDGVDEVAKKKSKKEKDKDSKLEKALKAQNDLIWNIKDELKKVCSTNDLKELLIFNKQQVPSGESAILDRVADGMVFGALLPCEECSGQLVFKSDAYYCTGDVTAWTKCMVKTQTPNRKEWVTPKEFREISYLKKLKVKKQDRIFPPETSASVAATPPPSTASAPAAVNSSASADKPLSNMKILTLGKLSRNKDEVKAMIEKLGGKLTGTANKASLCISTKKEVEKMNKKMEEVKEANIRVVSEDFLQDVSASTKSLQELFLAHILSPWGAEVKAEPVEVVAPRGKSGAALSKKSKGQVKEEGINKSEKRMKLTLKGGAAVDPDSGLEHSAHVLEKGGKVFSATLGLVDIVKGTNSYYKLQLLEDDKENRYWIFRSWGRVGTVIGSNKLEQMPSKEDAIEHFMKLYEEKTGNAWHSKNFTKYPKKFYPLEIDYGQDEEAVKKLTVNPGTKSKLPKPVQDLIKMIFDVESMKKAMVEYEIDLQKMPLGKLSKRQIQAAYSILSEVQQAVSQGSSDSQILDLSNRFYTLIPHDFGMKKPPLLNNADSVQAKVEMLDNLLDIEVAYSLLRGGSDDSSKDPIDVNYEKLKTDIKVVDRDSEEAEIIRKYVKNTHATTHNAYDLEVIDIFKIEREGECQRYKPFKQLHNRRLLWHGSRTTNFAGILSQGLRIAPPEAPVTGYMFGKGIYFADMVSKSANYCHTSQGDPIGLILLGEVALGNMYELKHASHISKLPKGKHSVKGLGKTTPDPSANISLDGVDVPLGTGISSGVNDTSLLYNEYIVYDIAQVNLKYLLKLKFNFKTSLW

On to `O=C(CC[C@@H]1CCCN1c1cc(C(F)(F)F)c(=O)[nH]n1)N1CCN(c2ncc(C(F)(F)F)cn2)CC1` [Compound 6], for which the CLint scaled at 1 μM came to 64.6 mL/min/kg in data set [1], 137 mL/min/kg in data set [2] and 31.6 mL/min/kg in data set [5]. In addition, in data set [3], the IC50 (commonly the concentration needed to halve the response being measured) was determined as 10 nM. Further, in data set [4] (Oral gavage), the F came out at 18.1%. Further, the area under the curve AUC(0-inf) (in general, the area under the concentration-time curve extrapolated to infinity) in data set [4] (Intravenous injection, 1 mg/kg) was 1380 ng·h/mL; in data set [4] (setting [8]), 248 ng·h/mL. Also, the Cmax (commonly the highest concentration seen after dosing) is 1950 ng/mL in data set [4] (Intravenous injection, 1 mg/kg) and 30.4 ng/mL in data set [4] (setting [8]). The compound also had a clearance in data set [4] (Intravenous injection, 1 mg/kg) of 12.2 mL/min/kg. In addition, in data set [4] (Intravenous injection, 1 mg/kg), the half-life (usually how long it takes for the measured level to halve) is 85.8 min.

`O=C(CC[C@@H]1C[C@@H](F)CN1c1cc(C(F)(F)F)c(=O)[nH]n1)N1CCN(c2ncc(C(F)(F)F)cn2)CC1` [Compound 20]: the CLint scaled at 1 μM in data set [1] was 46.6 mL/min/kg; in data set [2], 74.4 mL/min/kg; in data set [5], 28.7 mL/min/kg. This compound also yielded an IC50 in data set [3] of 12.4 nM. In data set [4] (Oral gavage), this compound gave an F of 15.53%. In addition, the AUC(0-inf) in data set [4] (Intravenous injection, 1 mg/kg) turned out to be 523 ng·h/mL; in data set [4] (setting [8]), 94.4 ng·h/mL. Also, the Cmax in data set [4] (Intravenous injection, 1 mg/kg) was 734 ng/mL; in data set [4] (setting [8]) it was 15 ng/mL. For the same compound, the clearance in data set [4] (Intravenous injection, 1 mg/kg) stood at 32 mL/min/kg. The half-life in data set [4] (Intravenous injection, 1 mg/kg) is 49.2 min.

In data set [6], `O=C(CC[C@@H]1C[C@@H](Oc2ccccc2)CN1c1cc(C(F)(F)F)c(=O)[nH]n1)N1CCN(c2ncc(C(F)(F)F)cn2)CC1` [Compound 21] came in with an IC50 of 816 nM. Moreover, in data set [3], the 50% inhibitory concentration (IC50) is 73.6 nM. In addition, the F in data set [4] (Oral gavage) is given as 21.18%. In data set [4] (Intravenous injection, 1 mg/kg), this compound gave a total exposure AUC(0-inf) of 482 ng·h/mL, a Cmax of 1210 ng/mL, a clearance of 36.9 mL/min/kg and a half-life of 30.6 min. Also, in data set [4] (setting [8]), the AUC(0-inf) was 111 ng·h/mL and the Cmax amounted to 40.2 ng/mL. Also, in data set [7], 3.4 nM corresponded to half-maximal inhibition (IC50).
